Data published in patent publication US20230033047A1, “Estrogen Metabolite Levels And Cancer Driver Gene Mutations In Lung Cancer Risk Stratification And Treatment” (Institute For Cancer Research d/b/a The Research Institute …, priority 2020, published 2023).
Entries after “also recorded” stand apart in the source; their conditions may differ. Marks after values point to notes of the source that are not given here.

Experiments:
Assay type in all cases: cell-based, human
HBEC-66KT cells = assay: Soft agar assay (anchorage independent growth, transformation) of HBEC-66KT cells; conditions: chronic treatment, data not shown
Source text: (§1) Three immortalized human bronchial epithelial cell lines (HBEC-57KT, -65KT, and -66KT) were used (see, Ramirez et al., Cancer Res., 2004, 64, 9027-34). […] Cells were immortalized by over-expressing Cdk4 and human telomerase reverse transcriptase (hTERT) to emulate two of the earliest events in lung cancer pathogenesis: abrogation of the p16/RB cell cycle checkpoint pathway and bypass of replicative senescence. HBEC-57KT, -65KT, and -66KT cells were maintained in keratinocyte serum-free (KSF) media containing 50 μg/ml bovine pituitary extract and 5 ng/ml epidermal growth factor. Initially, cells were chronically treated with 0.1% DMSO (vehicle) or 100 nM E2, 4-OHE1 or 4-OHE2. Subsequently, a broader dose range was tested, including 2, 10, 50, or 100 nM […]1, or 2-OHE2. Exposure times ranged from a minimum of 18 weeks and a maximum of 40 weeks. An aliquot from each cell line and treatment was banked in liquid nitrogen every 1-2 weeks. At specific timepoints (18, 24 and 34 weeks post-treatment), each treated cell line was assayed for transformation by assessing anchorage independent growth in soft agar according to the method of de Larco and Todaro (see, de Larco et al., Proc. Natl. Acad. Sci. USA, 1978, 75, 4001-5). Briefly, each well of a 12-well plate was coated with 0.6% agarose/KSF media. Wells were overlaid with 0.3% agarose/KSF media containing 5000 HBEC-KT cells. RKO colon carcinoma cells were included as a positive control. Each assay was performed in triplicate. After 4-6 weeks, plates were either stained with crystal violet for counting or used to isolate viable clones. Transformed clones were picked using a p200 pipette tip, placed back in culture under pre-treatment conditions in KSF media, and expanded for future analyses.

HBEC-57KT cells [1] = assay: Soft agar assay (anchorage independent growth, transformation) of HBEC-57KT cells; conditions: for transformation, ability to grow in soft agar: 2, 10, 50, or 100 nM for 27 weeks, FIG. 3; for colony formation / transformation in soft agar: 35 weeks of chronic treatment; for # Established: Experiment 2, picked clones established in culture
Source text: as §1, with “At specific timepoints (18, 24 and 34 weeks post-treatment), each treated cell line was assayed for transformation by assessing anchorage independent growth in soft agar according to the method of de Larco and Todaro (see, de Larco et al., Proc.” left out

HBEC-65KT cells [2] = assay: Soft agar assay (anchorage independent growth, transformation) of HBEC-65KT cells; conditions: for # Established: Experiment 2, picked clones established in culture
Source text: as §1, with “At specific timepoints (18, 24 and 34 weeks post-treatment), each treated cell line was assayed for transformation by assessing anchorage independent growth in soft agar according to the method of de Larco and Todaro (see, de Larco et al., Proc.” left out

HBEC-57KT cells [3] = assay: Comet assay of DNA damage in HBEC-57KT cells; conditions: HBEC-57KT (high-activity CYP1B1, low-activity COMT); short-term treatment; FIG. 4
Experimental: (§2) DNA was extracted from expanded clones for sequencing. The mutation status of 50 oncogenic driver genes was examined in transformed cells by next-gen sequencing using an AmpliSeq Illumina for Cancer Hotspot Panel v2. Data were analyzed using Illumina software. DNA damage induced by short-term treatment with estrogens was measured using the Comet assay (see, Mozaffarieh et al., Mol. Vis., 2008, 14, 1584-8). Other assays, however, may be used as desired.

HBEC-65KT cells [4] = assay: Comet assay of DNA damage in HBEC-65KT cells; conditions: HBEC-65KT (high-activity CYP1B1, low-activity COMT); short-term treatment; FIG. 4
Experimental: as §2

[5] = Experiment 2, chronic treatment, 100 nM, soft agar
[6] = Experiment 3, 18 weeks treated, colonies diffuse, did not grow once picked (not fully transformed)

Row | Compound | transformation (HBEC-66KT cells) | transformation, ability to grow in soft agar (HBEC-57KT cells [1]) | colony formation / transformation in soft agar (HBEC-57KT cells [1]) | # Colonies (HBEC-57KT cells [1]; [5]) | # Established (HBEC-57KT cells [1]) | # Colonies (HBEC-57KT cells [1]; Experiment 3, 35 weeks treated) | # Colonies (HBEC-65KT cells [2]; [5]) | # Established (HBEC-65KT cells [2]) | # Colonies (HBEC-65KT cells [2]; Experiment 3, 35 weeks treated) | DNA damage, comet tail moment vs. DMSO (HBEC-57KT cells [3]) | # Colonies (HBEC-57KT cells [1]; [6]) | DNA damage, comet tail moment vs. DMSO (HBEC-65KT cells [4]) | colony formation in soft agar (HBEC-65KT cells [2]; 35 weeks of chronic treatment) | # Colonies (HBEC-65KT cells [2]; Experiment 3, 18 weeks treated)
1 | C[C@]12CC[C@@H]3c4ccc(O)c(O)c4CC[C@H]3[C@@H]1CCC2=O [4-OHE1] | None of the tested treatments; also recorded: negative for transformation | can transform HBEC-57KT cells | also transformed HBEC-57KT cells | 0 | 0 | 5 (small) | 0 | 0 | 0 |  |  |  |  | 
2 | C[C@]12CC[C@@H]3c4cc(O)c(O)cc4CC[C@H]3[C@@H]1CC[C@@H]2O [2-OHE2] |  | can transform HBEC-57KT cells |  |  |  |  |  |  |  |  |  |  |  | 
3 | C[C@]12CC[C@@H]3c4ccc(O)cc4CC[C@H]3[C@@H]1CC[C@@H]2O [E2, 17β estradiol] | None of the tested treatments; also recorded: negative for transformation | can transform HBEC-57KT cells | low level colony formation | 13 | 6 | 30 | 11 | 4 | 34 | induce DNA damage | 0 | induce DNA damage | low level colony formation | 0
4 | C[C@]12CC[C@@H]3c4ccc(O)c(O)c4CC[C@H]3[C@@H]1CC[C@@H]2O [4-OHE2] | None of the tested treatments; also recorded: negative for transformation | can transform HBEC-57KT cells | efficient colony formation | 40 | 11 | 54 | 0 | 0 | 0 | induce DNA damage | 4* | induce DNA damage |  | 
5 | C[C@]12CC[C@@H]3c4cc(O)c(O)cc4CC[C@H]3[C@@H]1CCC2=O [2-OHE1] |  | can transform HBEC-57KT cells |  |  |  |  |  |  |  |  |  |  |  | 
